This is an account of results in PMC10587169, “Tuning aminopolycarboxylate chelators for efficient complexation of trivalent actinides” (Scientific Reports, 2023).

Like-named read-outs stand apart in the source and are kept apart here.

Data set [1] in a line: Spectrophotometric titration. It is filed as binding. The following applies: I = 2.0 M (Na+/H+)ClO4 at 20.0 °C, not marked potentiometry (spectrophotometric titration).
The conditions of data set [2]: cited from earlier work.
Data set [3] in a line: Spectrophotometric titration. It is filed as binding. The settings on record: spectrophotometrically measured, I = 2.0 M (Na+/H+)ClO4, T = 25 ± 1 °C, ±3σ. The source says:
Changes in the optical absorption characteristics of Nd^3+ were monitored using a Cary 6000i UV/Vis–NIR Spectrometer (Agilent) using 1 cm semimicro quartz cuvettes (Starna) in double-beam mode, where the ^4I9/2 → ^4G5/2, ^2G7/2 transitions[34] were monitored between 560 and 605 nm with a 0.075 nm interval and 1.0 nm spectral bandwidth. Changes in the optical absorption characteristics of ^243Am^3+ and ^248Cm^3+ were monitored using a Flame-S-VIS–NIR-ES spectrometer coupled to a DH-2000-BAL dual-mode light source (Ocean Optics) with a single 1 cm semimicro quartz cuvette (Starna). […] The complexation of Am^3+ with the ligands was monitored in the 495–525 nm spectral region, looking at the ^7F0′ → ^5L6′ transition[23],[35]. For Cm^3+, ligand complexation was monitored in the 365–410 nm spectral region, looking at the ^8S7/2 → ^2Ji (i = {15}, {13,9}, {11,17}) manifold transitions[24],[25],[36]. Changes in aqueous p[H^+] were monitored throughout each titration step using a Gran-calibrated Orion Ross Semi-micro glass electrode. […] Finally, the spectroscopic data was analyzed using the HypSpec software package[33],[37]. […]
To further validate the competitive solvent extraction methodology the complexation of Am^3+ with H4octapa and Cm^3+ with H4pypa-peg was studied spectrophotometrically. […] The presence of both ligands induced new red-shifted absorption signatures in each monitored titration. […]

For `O=C(O)CN(CCN(CCN(CC(=O)O)CC(=O)O)CC(=O)O)CCN(CC(=O)O)CC(=O)O` [H6ttha, triethylenetetraamine-N,N,N',N'',N''',N'''-hexaacetic acid], the “logβ121 (MH2L), Nd3+” value in data set [1] was 27.7(1).
On to `O=C(O)CN(CCN(CC(=O)O)Cc1cccc(C(=O)O)n1)Cc1cccc(C(=O)O)n1` [H4octapa, 6,6′-((ethane-1,2-diylbis–((carboxymethyl)azanediyl))bis–(methylene))dipicolinic acid], for which, in data set [2] (I = 0.15 M NaCl at 25 °C), the “pKa H2L2-” value is listed as 5.40 (1), the “pKa H3L-” value is 3.65 (1), the “pKa H4L(aq)” value is on record as 2.97 (1) and the “pKa H5L+” value was 1.66 (1). Besides, the “pKa HL3-” value in data set [2] (I = 0.15 M NaCl at 25 °C) was 8.52 (1). In data set [2] (I = 0.16 M NaCl at 25 °C), the “pKa H2L2-” value is 5.43 (2), the “pKa H3L-” value is on record as 3.75 (1), the “pKa H4L(aq)” value was 3.08 (1) and the “pKa H5L+” value is reported as 2.21 (2). For the same compound, in data set [2] (I = 0.16 M NaCl at 25 °C), the “pKa H6L2+” value is 1.61 (2), the “pKa H7L3+” value is listed as 0.12 (4) and the “pKa HL3-” value was 8.58 (1).
Consider `O=C(O)CN(Cc1cc(-c2cn(CCOCCOCCO)nn2)cc(CN(CC(=O)O)Cc2cccc(C(=O)O)n2)n1)Cc1cccc(C(=O)O)n1` [H4pypa-peg, 6,6'-((((4-(1-(2-(2-(2-hydroxyethoxy)ethoxy)ethyl)-1H-1,2,3-triazol-4-yl)pyridine-2,6-diyl)bis–(methylene))bis–((carboxymethyl)azanediyl))bis–(methylene)) dipicolinic acid], for which, in data set [3], the “logβ101 (ML), Cm3+” value is reported as 20.37 (2).
